According to PubChem BioAssay AID2060910 (Molecular Pharmacology Branch, DTP, NCI, 2025):

System: 242566-281-R-J2-PDC complex spheroid viability
Experiment: Anticancer human tumor 242566-281-R-J2-PDC patient-derived pancreatic carcinoma cell line growth inhibition [RAS]
Conditions: for IC50: curve of first compound; for viability, T/C: stronger effect = lower value; active means viability on the fitted dose curve at most 10% of control; inactive means the rest
Procedure, shortened: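 Agents were tested in combination matrices in half-log decrements from a top concentration at or near clinical Cmax (10 microM if undetermined). Targets were multi-cell spheroids of tumour lines plus HUVEC and MSC stromal cells.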

[1] = second compound 0.0316 µM, first compound 0.0316 µM
[2] = second compound 0.0316 µM, first compound 0.1 µM
[3] = second compound 0.0316 µM, first compound 0.316 µM
[4] = second compound 0.0316 µM, first compound 1 µM
[5] = second compound 0.1 µM, first compound 0.0316 µM
[6] = second compound 0.1 µM, first compound 0.1 µM
[7] = second compound 0.1 µM, first compound 0.316 µM
[8] = second compound 0.1 µM, first compound 1 µM
[9] = second compound 0.316 µM, first compound 0.0316 µM
[10] = second compound 0.316 µM, first compound 0.1 µM
[11] = second compound 0.316 µM, first compound 0.316 µM
[12] = second compound 0.316 µM, first compound 1 µM
[13] = second compound 1 µM, first compound 0.0316 µM
[14] = second compound 1 µM, first compound 0.1 µM
[15] = second compound 1 µM, first compound 0.316 µM
[16] = second compound 1 µM, first compound 1 µM
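Further: spheroids exposed to compound for 7 days before readout.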
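Wherever viability, T/C is given: 100% = DMSO vehicle control wells.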

NC1c2ccccc2OC12CCN(c1cnc3c(N4CCCc5ncccc54)n[nH]c3n1)CC2 (centres undefined) + C#Cc1c(F)ccc2cc(O)cc(-c3ncc4c(N5CC6CCC(C5)N6)nc(OCC56CCCN5CC(F)C6)nc4c3F)c12
inactive: viability, T/C [1] 72.3% | viability, T/C [2] 56.2% | viability, T/C [3] 41.6% | viability, T/C [4] 33.1% | viability, T/C (second compound 0.0316 µM, first compound 3.16 µM) 29.7% | viability, T/C (second compound 0.0316 µM, first compound 10 µM) 22.9% | viability, T/C [5] 52.3% | viability, T/C [6] 49% | viability, T/C [7] 36.8% | viability, T/C [8] 28.4% | viability, T/C (second compound 0.1 µM, first compound 3.16 µM) 34.1% | viability, T/C (second compound 0.1 µM, first compound 10 µM) 20.3% | viability, T/C [9] 40.6% | viability, T/C [10] 43% | viability, T/C [11] 36.1% | viability, T/C [12] 35.7% | viability, T/C (second compound 0.316 µM, first compound 3.16 µM) 31.8% | viability, T/C (second compound 0.316 µM, first compound 10 µM) 17.3% | viability, T/C [13] 32.2% | viability, T/C [14] 37.8% | viability, T/C [15] 36.3% | viability, T/C [16] 29% | viability, T/C (second compound 1 µM, first compound 3.16 µM) 34% | viability, T/C (second compound 1 µM, first compound 10 µM) 18.7% | viability, T/C (second compound 3.16 µM, first compound 0.0316 µM) 35.2% | viability, T/C (second compound 3.16 µM, first compound 0.1 µM) 38.1% | viability, T/C (second compound 3.16 µM, first compound 0.316 µM) 39.5% | viability, T/C (second compound 3.16 µM, first compound 1 µM) 33.7% | viability, T/C (second compound 3.16 µM, first compound 3.16 µM) 34.9% | viability, T/C (second compound 3.16 µM, first compound 10 µM) 16.2% | viability, T/C (second compound 10 µM, first compound 0.0316 µM) 38.1% | viability, T/C (second compound 10 µM, first compound 0.1 µM) 36.9% | viability, T/C (second compound 10 µM, first compound 0.316 µM) 39.6% | viability, T/C (second compound 10 µM, first compound 1 µM) 33% | viability, T/C (second compound 10 µM, first compound 3.16 µM) 35.5% | viability, T/C (second compound 10 µM, first compound 10 µM) 10.4%
163 nM: IC50 (second compound 0.0316 µM)
< 31.6 nM: IC50 (second compound 0.316 µM) | IC50 (second compound 1 µM) | IC50 (second compound 3.16 µM) | IC50 (second compound 10 µM)
52.4 nM: IC50 (second compound 0.1 µM)

CCN1CCN(Cc2ccc(Nc3ncc(F)c(-c4cc(F)c5nc(C)n(C(C)C)c5c4)n3)nc2)CC1 + C=CC(=O)N1CCN(c2nc(OCC3CCCN3C)nc3c(F)c(-c4nc(N)cc(C)c4C(F)(F)F)c(Cl)cc23)C(C)C1
> 1000 nM: IC50 (second compound 0.00316 µM) | IC50 (second compound 0.01 µM) | IC50 (second compound 0.0316 µM) | IC50 (second compound 0.1 µM) | IC50 (second compound 0.316 µM) | IC50 (second compound 1 µM)
inactive: viability, T/C (second compound 0.00316 µM, first compound 0.00316 µM) 121% | viability, T/C (second compound 0.00316 µM, first compound 0.01 µM) 135% | viability, T/C (second compound 0.00316 µM, first compound 0.0316 µM) 100% | viability, T/C (second compound 0.00316 µM, first compound 0.1 µM) 90.5% | viability, T/C (second compound 0.00316 µM, first compound 0.316 µM) 123% | viability, T/C (second compound 0.00316 µM, first compound 1 µM) 167% | viability, T/C (second compound 0.01 µM, first compound 0.00316 µM) 95.2% | viability, T/C (second compound 0.01 µM, first compound 0.01 µM) 160% | viability, T/C (second compound 0.01 µM, first compound 0.0316 µM) 101% | viability, T/C (second compound 0.01 µM, first compound 0.1 µM) 88.8% | viability, T/C (second compound 0.01 µM, first compound 0.316 µM) 127% | viability, T/C (second compound 0.01 µM, first compound 1 µM) 154% | viability, T/C (second compound 0.0316 µM, first compound 0.00316 µM) 104% | viability, T/C (second compound 0.0316 µM, first compound 0.01 µM) 120% | viability, T/C [1] 102% | viability, T/C [2] 108% | viability, T/C [3] 131% | viability, T/C [4] 169% | viability, T/C (second compound 0.1 µM, first compound 0.00316 µM) 115% | viability, T/C (second compound 0.1 µM, first compound 0.01 µM) 136% | viability, T/C [5] 97.9% | viability, T/C [6] 89.3% | viability, T/C [7] 130% | viability, T/C [8] 167% | viability, T/C (second compound 0.316 µM, first compound 0.00316 µM) 98.1% | viability, T/C (second compound 0.316 µM, first compound 0.01 µM) 134% | viability, T/C [9] 94.5% | viability, T/C [10] 99.9% | viability, T/C [11] 154% | viability, T/C [12] 154% | viability, T/C (second compound 1 µM, first compound 0.00316 µM) 94.2% | viability, T/C (second compound 1 µM, first compound 0.01 µM) 136% | viability, T/C [13] 94.9% | viability, T/C [14] 96.8% | viability, T/C [15] 138% | viability, T/C [16] 160%
